# Laboratory results as given in patent US20240307477A1, “COMPOSITION FOR PREVENTING OR TREATING LIVER FIBROSIS INCLUDING SANGUISORBA OFFICINALIS EXTRACT AS ACTIVE INGREDIENT” (KOREA INSTITUTE OF SCIENCE AND TECHNOLOGY, priority 2023, published 2024).
# System: human immortalization hepatic stellate cells (human LX-2)
# Assay: RT-qPCR of liver fibrosis-related gene expression in TGF-β-treated hepatic stellate cells
# Assay type: cell-based
# Settings: LX-2 cells, 5 ng/mL TGF-β, 24 hours; extract 1, 5 or 10 μg/mL, ziyuglycoside 5 μM; RT-qPCR vs GAPDH
# Description: As hepatic stellate cells, human immortalization hepatic stellate cells (human LX-2) were given and used. The hepatic stellate cells were cultured in Dulbecco's modified Eagle's medium (DMEM; Invitrogen, US) containing 10% fetal bovine serum (FBS), penicillin (100 U/mL) and streptomycin ([…]) at 37° C. and in a 5% CO2 condition.
# To measure the hepatic anti-fibrosis effect of the Sanguisorba officinalis extract (1, 5 or 10 μg/mL) and ziyuglycoside (5 μM) in the LX-2 cells, a real time-quantitative polymerase chain reaction (RT-qPCR) was performed.
# First, the hepatic stellate cells were treated with each of the Sanguisorba officinalis extract (1, 5, or 10 μg/mL) and the ziyuglycoside (5 μM) along with 5 ng/mL of a liver fibrosis-inducing material TGF-β and cultured for 24 hours. Afterward, the cells were washed with PBS, total RNA was then extracted according to the manual of an RNA extraction kit (GeneAll RNA isolation kit, Korea), and cDNA was synthesized from the extracted RNA. PCR analysis was performed under user recommended cycling conditions of an analyzer (Applied Biosystems 7900 HT thermal cycler, Applied Biosystems), and to confirm the expression level of each mRNA, PCR was performed using the primers in Table 1 below, and the fold change value for the control was calculated using GAPDH as an endogenous control, and a relative expression level was compared.
Compound,ACTA2 gene expression increased by TGF-β treatment,COL1A1 gene expression increased by TGF-β treatment,TIMP1 gene expression increased by TGF-β treatment
ziyuglycoside,reduced,reduced,reduced
C[C@@H]1CC[C@]2(C(=O)O)CC[C@]3(C)C(=CC[C@@H]4[C@@]5(C)CC[C@H](O[C@@H]6OC[C@H](O)[C@H](O)[C@H]6O)C(C)(C)[C@@H]5CC[C@]43C)[C@@H]2[C@]1(C)O [ziyuglycoside II],inhibited,inhibited,inhibited
C[C@@H]1CC[C@]2(C(=O)O[C@@H]3O[C@H](CO)[C@@H](O)[C@H](O)[C@H]3O)CC[C@]3(C)C(=CC[C@@H]4[C@@]5(C)CC[C@H](O[C@@H]6OC[C@H](O)[C@H](O)[C@H]6O)C(C)(C)[C@@H]5CC[C@]43C)[C@@H]2[C@]1(C)O [ziyuglycoside I],inhibited,inhibited,inhibited
